Reference: patent US20060009487A1, “Heterocyclic derivatives for treatment of hyperlipidemia and related diseases” (priority 2004, published 2006)

| Structure (SMILES) | melting point [°C] |
| --- | --- |
| Cc1nc2ccccc2c(-c2ccccc2)c1CC(NC(=O)CCCC(=O)O)C(=O)NCCCCN (centres unmarked) [D9, 4-[1-(4-Amino-butylcarbamoyl)-2-(2-methyl-4-phenyl-quinolin-3-yl)-ethylcarbamoyl]-butyric acid] | 129 |
| O=C(O)c1cnc2ccccc2c1NCCCNc1ncccn1 [E6, n=2, R=H, 4-[3-(Pyrimidin-2-yl-amino)-propylamino]-quinoline-3-carboxylic acid] | 269 |
| CCOC(=O)c1cnc2ccccc2c1NCCCCCNc1ncccn1 [E6, n=4, R═CH2CH3, 4-[5-(Pyrimidin-2-ylamino)-pentylamino]-quinoline-3-carboxylic acid ethyl ester] | 108 |

More lines, now with the values ahead:

| melting point [°C] | Structure (SMILES) |
| --- | --- |
| 267 | N=C(N)NCCNc1c(C(=O)O)cnc2ccccc12 [E5, n=1, 4-(2-Guanidino-ethylamino)-quinoline-3-carboxylic acid] |
| 305 | Nc1c(C(=O)O)cnc2ccccc12 [F3, 4-Amino-quinoline-3-carboxylic acid] |
